Laboratory results as given in patent publication US20140088114A1, “FUSED BICYCLIC KINASE INHIBITORS” (OSI Pharmaceuticals ,LLC, priority 2011, published 2014).

Experiments:
Karpas-299 cells = assay: Karpas-299 cell proliferation assay (CellTiter-Glo); format: cell-based; details: Homo sapiens, 72 h; Karpas-299 cell line (NPM-ALK), 3 days incubation, at least duplicate experiments; read-out: Prolif. IC50
Experimental: The effect of inhibitors on the proliferation of Karpas-299 cells (DSMZ no. ACC 31) was determined using the following protocol. Karpas-299 cells were plated in 96-well white tissue culture treated plates (Corning 3917) in growth medium (RPMI, 10% FCS) at a density of 5000 cells/well in a total volume of 135 μL and incubated at 37° C., 5% CO2, 95% humidity overnight. The following day, one-tenth volume of a 10× concentration of compounds was added to the wells in an 8-point dilution series. Compounds were serially diluted (1:4) in DMSO from a 10 mM stock solution prior to dilution in growth media to the 10× working concentrations (5% DMSO). Final concentration of DMSO in compound-treated wells was 0.5%. Control wells containing growth media or growth media/0.5% DMSO were included in all test plates. The typical dilution range is 10 μM to 0.1 nM. Once the compounds were added to the cells, plates were incubated for 3 days at 37° C., 5% CO2 at 95% humidity. After 72 hours, all cells and reagents were equilibrated to room temperature and 15 μL of CellTiter-Glo reagent (Promega #G7573) was added to each well. Plates were shaken on a platform for 10 minutes at room temperature prior to reading luminescence. The value of the signal of the control wells was set as 100% growth and growth inhibition was expressed as percent of control. IC50 values were determined from the percent of control data using a standard four-parameter curve fit equation.
The IC50 values of exemplary compounds of the present invention determined in a cell proliferation assay using the Karpas-299 cell line according to the procedures described herein in at least duplicate experiments are abbreviated as follows and are shown in Table 5: A, IC50≦0.03 μM; B, 0.03 μM<IC50≦0.1 μM; C, 0.1 μM<IC50≦1 μM; D, 1 μM<IC50≦3 μM; ND, not determined. The Example # of Table 5 corresponds to the compound example number as illustrated in the Examples section.
The Karpas-299 cell line has a t(2;5) chromosomal translocation and expresses the NPM-ALK fusion protein, resulting in constitutively active ALK. […] Ther. 6(12):3314-22 (2007)]. With this “ALK-driven” cell line by ALK, the cell proliferation IC50 values can thus be used as surrogate for the p-ALK cell mechanistic IC50 values.

Aurora B = target: T1, Aurora B (Homo sapiens, UniProt Q96GD4); assay: Aurora B cell mechanistic assay (HT-29), phospho-Histone H3 (Ser10) ELISA; format: cell-based; details: HT-29 cell line, inhibition of phospho-Histone H3 (Ser10), at least duplicate experiments (italicized if single); read-out: Aurora B mech IC50
T1 construct: HT-29 cells grown in complete growth media; endogenous in cells; host or cells: HT-29
T1 sequence (Q96GD4 whole entry): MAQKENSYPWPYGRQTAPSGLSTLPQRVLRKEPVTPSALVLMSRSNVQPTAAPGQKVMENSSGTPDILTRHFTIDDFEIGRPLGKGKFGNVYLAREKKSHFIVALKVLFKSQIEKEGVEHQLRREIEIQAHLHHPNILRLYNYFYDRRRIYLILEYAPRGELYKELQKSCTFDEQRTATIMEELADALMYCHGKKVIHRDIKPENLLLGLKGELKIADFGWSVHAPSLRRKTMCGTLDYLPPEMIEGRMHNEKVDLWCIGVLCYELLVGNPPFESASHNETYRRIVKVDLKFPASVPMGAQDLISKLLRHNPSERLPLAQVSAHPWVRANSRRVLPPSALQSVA
Experimental: The cellular activity of the compounds of the present invention against Aurora B may be determined by the following procedure. HT-29 cells grown in complete growth media (McCoy's 5A, 10% FCS, 1% L-glutamine) were plated into wells of a 96 well tissue culture plate (Falcon 3072) at a cell density of 4×10^4 cells/0.09 ml media/well. Cells were subsequently incubated overnight in a 5% CO2 humidified 37° C. incubator. The following day 10 μl of a 10× stock of test compound serially diluted in media was added to the cells and incubated for 1 h at 37° C. at which time Calyculin A (Cell Signaling #9902) was added at a concentration of 100 nM and cells incubated for an additional 30 minutes in a 5% CO2 humidified 37° C. incubator. Media was then aspirated and cells lysed using a Triton based lysis buffer. Lysates were transferred to a pre-coated anti-Histone H3 antibody coated plate supplied by Cell Signaling in their PathScan phospho-Histone H3 (Ser10) ELISA kit (#7155). After an overnight incubation with lysate the ELISA was continued following the manufacturer's instructions. Signal was measured on a Wallac Victor plate reader at 450 nm. DMSO control treated cells served as 100% signal and an Aurora B kinase inhibitor served as 100% inhibition. The percent inhibition of phospho-Histone H3 (Ser10) was expressed as % control. IC50 values were calculated from the percent control data using a standard four-parameter model.
The IC50 values of exemplary compounds of the present invention determined in a Aurora B cell mechanistic assay using the HT-29 cell line according to the procedures described herein in at least duplicate experiments are abbreviated as follows and are shown in Table 4: A, IC50≦0.03 μM; B, 0.03 μM<IC50≦0.1 μM; C, 0.1 μM<IC50≦1 μM; D, 1 μM<IC50≦3 μM; ND, not determined. If only data from single experiments are available, the abbreviations are italicized. The Example # of Table 4 corresponds to the compound example number as illustrated in the Examples section.

SMILES | IC50 (Karpas-299 cells) | IC50 (Aurora B)
COc1ccc(F)c(Cl)c1[C@@H](CF)c1c[nH]c2ncc(-c3cnn([C@H]4CC[C@H](O)CC4)c3)cc12 [Example 3, trans-4-(4-{3-[(1S)-1-(2-chloro-3-fluoro-6-methoxyphenyl)-2-fluoroethyl]-1H-pyrrolo[2,3-b]pyridin-5-yl}-1H-pyrazol-1-yl)cyclohexanol] | 30 to 100 nM | ≤ 30 nM
Cn1cc(-c2cnc3[nH]cc(C(CF)c4c(Cl)ccc(F)c4Cl)c3c2)cn1 (centres unmarked) [Example 1, 3-[1-(2,6-Dichloro-3-fluorophenyl)-2-fluoroethyl]-5-(1-methyl-1H-pyrazol-4-yl)-1H-pyrrolo[2,3-b]pyridine] | 100 to 1000 nM | 100 to 1000 nM
O[C@H]1CC[C@H](n2cc(-c3cnc4[nH]cc([C@H](CF)c5c(OC(F)F)ccc(F)c5Cl)c4c3)cn2)CC1 [Example 5, trans-4-[4-(3-{(1S)-1-[2-Chloro-6-(difluoromethoxy)-3-fluorophenyl]-2-fluoroethyl}-1H-pyrrolo[2,3-b]pyridin-5-yl)-1H-pyrazol-1-yl]cyclohexanol] | ≤ 30 nM | ≤ 30 nM
O[C@H]1CC[C@H](n2cc(-c3cnc4[nH]cc([C@@H](CF)c5c(OC(F)F)ccc(F)c5Cl)c4c3)cn2)CC1 [Example 4, trans-4-[4-(3-{(1R)-1-[2-Chloro-6-(difluoromethoxy)-3-fluorophenyl]-2-fluoroethyl}-1H-pyrrolo[2,3-b]pyridin-5-yl)-1H-pyrazol-1-yl]cyclohexanol] | 100 to 1000 nM | 100 to 1000 nM
